# Test results taken from BindingDB's records for doi:10.1016/j.ejmech.2013.03.032 (University of Messina, 2013).
# Biological target: T1, Proteasome subunit beta type-1 (Homo sapiens, UniProt P20618)
# T1 sequence (P20618 whole entry): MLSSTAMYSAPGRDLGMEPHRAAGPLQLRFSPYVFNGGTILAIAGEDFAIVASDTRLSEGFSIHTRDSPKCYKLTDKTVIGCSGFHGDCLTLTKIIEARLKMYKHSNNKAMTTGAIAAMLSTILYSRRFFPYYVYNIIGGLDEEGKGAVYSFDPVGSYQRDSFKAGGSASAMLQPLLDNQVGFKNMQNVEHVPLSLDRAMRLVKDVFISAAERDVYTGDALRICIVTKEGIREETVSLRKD
# Assay: Inhibition of human 20S proteasome post-glutamyl peptide hydrolyzing activity using Z-Leu-Leu-Glu-AMC as substrate measured over 10 mins by fluorescence assay
row,Compound,Ki [µM]
1,CC(C)C[C@H](NC(=O)Cn1ccc2c(c1=O)CCCN2C)B(O)O,3.9
2,CC(C)C[C@H](NC(=O)Cn1ccc(Nc2ccccc2)cc1=O)B(O)O,5.14
3,CC(C)C[C@H](NC(=O)[C@H](C)n1ccc2ncccc2c1=O)B(O)O,13.6
4,CC(C)C[C@H](NC(=O)Cn1ccc(N2CCCCC2)cc1=O)B(O)O,1.42
5,CC(C)C[C@H](NC(=O)Cn1ccccc1=O)B(O)O,1.38

# Continued by falling Ki, values first:
row,Ki [µM],Compound
1,4.42,CCN(CC)c1ccn(CC(=O)N[C@@H](CC(C)C)B(O)O)c(=O)c1
2,0.52,CC(C)C[C@H](NC(=O)Cn1ccc(N2CCOCC2)cc1=O)B(O)O
